Literature values, collected in PMC9179904 (Cancers, 2022).

Assays:
[1] = parameters: method as in PMID 7938477, PMID 9935073
[2] = tested on: PC-3 PIP and LNCaP tumors; parameters: method as in PMID 34402925

| Compound | Internalized alpha particles needed to decrease survival to 37–50% [1] | Tumor uptake, PC-3 PIP higher than LNCaP tumors [2] |
| --- | --- | --- |
| ^213Bi-CHX-A-DTPA-HuM195m | 1 | – |
| O=C([O-])CN1CCN(CC(=O)[O-])CCN(CC(=O)NCC2CCC(C(=O)N[C@@H](Cc3ccc4ccccc4c3)C(=O)NCCCC[C@H](NC(=O)N[C@@H](CCC(=O)O)C(=O)O)C(=O)O)CC2)CCN(CC(=O)[O-])CC1.[177Lu+3] (stereo partly drawn) [^177Lu-PSMA-617] | – | 6–10 fold |
| S=C([S-])N1CCCC1.S=C([S-])N1CCCC1.[Pb+2] [^212Pb(PDC)2] | 11 | – |
